According to PMC9076072 (RSC Advances, 2019):

System: RAW 264.7 macrophages
Test: Macrophage cytotoxicity seen in the anti-inflammatory assay

SMILES	Concentration at which macrophage cytotoxicity appeared
C[C@H]1[C@H](C)CC[C@]2(C(=O)O)CC[C@]3(C)C(=CC[C@@H]4[C@@]5(C)CC[C@H](O)C(C)(C)[C@@H]5CC[C@]43C)[C@H]12 [Compound 2, Ursolic acid]	20 µM
C=C(C)[C@@H]1CC[C@]2(C(=O)O)CC[C@]3(C)[C@H](CC[C@@H]4[C@@]5(C)CC[C@H](O)C(C)(C)[C@@H]5CC[C@]43C)[C@@H]12 [Compound 1, Betulinic acid]	20 µM
